Source: US8835652B2, “Delta crystalline form of the arginine salt of perindopril, a process for its preparation, and pharmaceutical compositions containing it” (Les Laboratoires Servier, priority 2012, dated 2014)
Where a name gives a salt, the structure may show the parent alone.

Experiment: Thermal stability at 110° C. in an open flask (HPLC purity)
Assay type: physicochemical
Experimental: The thermal stability of the delta form at 110° C. in an open flask was compared to that of forms from the prior art.

[1] = 76 hours at 110° C., open flask
[2] = t = 0, before heating (baseline of the thermal stability test)

CCC[C@H](N[C@@H](C)C(=O)N1[C@H](C(=O)O)C[C@@H]2CCCC[C@@H]21)C(=O)OCC.N=C(N)NCCC[C@H](N)C(=O)O [γ form according to WO 2009/157018]
HPLC purity (%) [1]: 93.4% | HPLC purity (%) [2]: 99.7%

CCC[C@H](N[C@@H](C)C(=O)N1[C@H](C(=O)O)C[C@@H]2CCCC[C@@H]21)C(=O)OCC.N=C(N)NCCC[C@H](N)C(=O)O [β form according to EP 2 016 051]
HPLC purity (%) [1]: 98.3% | HPLC purity (%) [2]: 99.6%

CCC[C@H](N[C@@H](C)C(=O)N1[C@H](C(=O)O)C[C@@H]2CCCC[C@@H]21)C(=O)OCC [perindopril L-arginine salt]
Thermal stability compared to the other known forms (110° C., open flask): improved thermal stability | HPLC purity (%) [1]: 99.5% | HPLC purity (%) [2]: 99.7%

CCC[C@H](N[C@@H](C)C(=O)N1[C@H](C(=O)O)C[C@@H]2CCCC[C@@H]21)C(=O)OCC.N=C(N)NCCC[C@H](N)C(=O)O [α form according to EP 1 989 182]
HPLC purity (%) [1]: 98.8% | HPLC purity (%) [2]: 99.8%

CCC[C@H](N[C@@H](C)C(=O)N1[C@H](C(=O)O)C[C@@H]2CCCC[C@@H]21)C(=O)OCC.N=C(N)NCCC[C@H](N)C(=O)O [Form obtained according to the process of SI 23001]
HPLC purity (%) [1]: 86.9% | HPLC purity (%) [2]: 99.1%
